Source: ChEMBL document CHEMBL4507265 (2021)

Legend:
[1] = target: Mitogen-activated protein kinase 15 (Homo sapiens) (UniProt Q8TD08); details: Compound concentration 1000.0 nM
[2] = target: Cyclin-dependent kinase 17 (Homo sapiens) (UniProt Q00537); details: Compound concentration 1000.0 nM
[3] = target: Serine/threonine-protein kinase PLK3 (Homo sapiens) (UniProt Q9H4B4); details: Compound concentration 1000.0 nM
[4] = target: Cyclin-dependent kinase 11B (Homo sapiens) (UniProt P21127); details: Compound concentration 1000.0 nM
[5] = target: Serine/threonine-protein kinase D3 (Homo sapiens) (UniProt O94806); details: Compound concentration 1000.0 nM
[6] = target: Non-receptor tyrosine-protein kinase TNK1 (Homo sapiens) (UniProt Q13470); details: Compound concentration 1000.0 nM
[7] = target: Muscle, skeletal receptor tyrosine-protein kinase (Homo sapiens) (UniProt O15146); details: Compound concentration 1000.0 nM
[8] = target: RAC-beta serine/threonine-protein kinase (Homo sapiens) (UniProt P31751); details: Compound concentration 1000.0 nM
[9] = target: 5-hydroxytryptamine receptor 2B (Homo sapiens) (UniProt P41595); details: Compound concentration 10.0 uM
[10] = target: T1, Muscarinic acetylcholine receptor M2 (Homo sapiens) (UniProt P08172); details: Compound concentration 10.0 uM
T1 sequence (whole entry): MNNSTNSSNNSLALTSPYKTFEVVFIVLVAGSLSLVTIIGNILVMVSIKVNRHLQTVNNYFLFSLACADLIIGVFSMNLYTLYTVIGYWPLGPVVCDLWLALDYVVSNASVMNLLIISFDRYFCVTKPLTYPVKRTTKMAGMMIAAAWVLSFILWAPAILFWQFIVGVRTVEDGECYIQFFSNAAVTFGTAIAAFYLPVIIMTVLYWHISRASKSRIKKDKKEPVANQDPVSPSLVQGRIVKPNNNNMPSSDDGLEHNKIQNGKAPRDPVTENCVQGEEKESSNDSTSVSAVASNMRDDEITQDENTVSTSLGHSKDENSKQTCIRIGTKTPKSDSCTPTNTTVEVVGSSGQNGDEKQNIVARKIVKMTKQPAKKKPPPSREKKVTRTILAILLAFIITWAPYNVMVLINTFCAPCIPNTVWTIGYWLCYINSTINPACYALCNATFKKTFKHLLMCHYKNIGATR

[11] = system: Phosphatidylinositol 4,5-bisphosphate 3-kinase catalytic subunit alpha isoform (Homo sapiens), P42336 [E545K]; details: Compound concentration 1000.0 nM
[12] = target: Cyclin-dependent kinase 7 (Homo sapiens) (UniProt P50613); details: Compound concentration 1000.0 nM
[13] = system: Serine/threonine-protein kinase B-raf (Homo sapiens), P15056 [V600E]; details: Compound concentration 1000.0 nM
[14] = target: Tyrosine-protein kinase Fyn (Homo sapiens) (UniProt P06241); details: Compound concentration 1000.0 nM
[15] = target: Mitogen-activated protein kinase 4 (Homo sapiens) (UniProt P31152); details: Compound concentration 1000.0 nM
[16] = target: Calcium/calmodulin-dependent protein kinase type II subunit alpha (Homo sapiens) (UniProt Q9UQM7); details: Compound concentration 1000.0 nM
[17] = target: Activin receptor type-1 (Homo sapiens) (UniProt Q04771); details: Compound concentration 1000.0 nM
[18] = target: Phosphatidylinositol 4,5-bisphosphate 3-kinase catalytic subunit gamma isoform (Homo sapiens) (UniProt P48736); details: Compound concentration 1000.0 nM
[19] = target: Serine/threonine-protein kinase 38 (Homo sapiens) (UniProt Q15208); details: Compound concentration 1000.0 nM
[20] = target: Serine/threonine-protein kinase NIM1 (Homo sapiens) (UniProt Q8IY84); details: Compound concentration 1000.0 nM
[21] = target: Tyrosine-protein kinase ABL1 (Homo sapiens) (UniProt P00519); details: Compound concentration 1000.0 nM
[22] = target: Epithelial discoidin domain-containing receptor 1 (Homo sapiens) (UniProt Q08345); details: Compound concentration 1000.0 nM
[23] = target: Cyclin-dependent kinase 8 (Homo sapiens) (UniProt P49336); details: Compound concentration 1000.0 nM
[24] = target: Inhibitor of nuclear factor kappa-B kinase subunit epsilon (Homo sapiens) (UniProt Q14164); details: Compound concentration 1000.0 nM
[25] = target: Serine/threonine-protein kinase PAK 5 (Homo sapiens) (UniProt Q9P286); details: Compound concentration 1000.0 nM
[26] = target: Serine/threonine-protein kinase LATS1 (Homo sapiens) (UniProt O95835); details: Compound concentration 1000.0 nM
[27] = target: T2, 5-hydroxytryptamine receptor 1A (Homo sapiens) (UniProt P08908); details: Compound concentration 10.0 uM
T2 sequence (whole entry): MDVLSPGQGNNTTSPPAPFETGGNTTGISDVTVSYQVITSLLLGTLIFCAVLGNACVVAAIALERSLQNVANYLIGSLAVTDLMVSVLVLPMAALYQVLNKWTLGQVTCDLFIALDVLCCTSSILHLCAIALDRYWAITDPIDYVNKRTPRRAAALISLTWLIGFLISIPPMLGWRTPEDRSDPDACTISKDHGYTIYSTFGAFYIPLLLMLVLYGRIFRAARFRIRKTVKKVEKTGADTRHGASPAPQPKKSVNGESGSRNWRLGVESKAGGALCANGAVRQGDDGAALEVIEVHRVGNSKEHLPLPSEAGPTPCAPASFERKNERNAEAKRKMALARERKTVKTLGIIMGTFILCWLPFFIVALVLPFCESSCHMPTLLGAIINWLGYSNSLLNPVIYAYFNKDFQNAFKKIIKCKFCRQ

[28] = target: 1-phosphatidylinositol 3-phosphate 5-kinase (Homo sapiens) (UniProt Q9Y2I7); details: Compound concentration 1000.0 nM
[29] = target: Ribosomal protein S6 kinase alpha-1 (Homo sapiens) (UniProt Q15418); details: Compound concentration 1000.0 nM
[30] = target: Rhodopsin kinase GRK7 (Homo sapiens) (UniProt Q8WTQ7); details: Compound concentration 1000.0 nM
[31] = target: Tyrosine-protein kinase FRK (Homo sapiens) (UniProt P42685); details: Compound concentration 1000.0 nM
[32] = system: Phosphatidylinositol 4,5-bisphosphate 3-kinase catalytic subunit alpha isoform (Homo sapiens), P42336 [E542K]; details: Compound concentration 1000.0 nM
[33] = target: Serine/threonine-protein kinase Nek5 (Homo sapiens) (UniProt Q6P3R8); details: Compound concentration 1000.0 nM

Serine/threonine-protein kinase B-raf (Homo sapiens), P15056 [V600E], sequence (P15056 whole entry V600E): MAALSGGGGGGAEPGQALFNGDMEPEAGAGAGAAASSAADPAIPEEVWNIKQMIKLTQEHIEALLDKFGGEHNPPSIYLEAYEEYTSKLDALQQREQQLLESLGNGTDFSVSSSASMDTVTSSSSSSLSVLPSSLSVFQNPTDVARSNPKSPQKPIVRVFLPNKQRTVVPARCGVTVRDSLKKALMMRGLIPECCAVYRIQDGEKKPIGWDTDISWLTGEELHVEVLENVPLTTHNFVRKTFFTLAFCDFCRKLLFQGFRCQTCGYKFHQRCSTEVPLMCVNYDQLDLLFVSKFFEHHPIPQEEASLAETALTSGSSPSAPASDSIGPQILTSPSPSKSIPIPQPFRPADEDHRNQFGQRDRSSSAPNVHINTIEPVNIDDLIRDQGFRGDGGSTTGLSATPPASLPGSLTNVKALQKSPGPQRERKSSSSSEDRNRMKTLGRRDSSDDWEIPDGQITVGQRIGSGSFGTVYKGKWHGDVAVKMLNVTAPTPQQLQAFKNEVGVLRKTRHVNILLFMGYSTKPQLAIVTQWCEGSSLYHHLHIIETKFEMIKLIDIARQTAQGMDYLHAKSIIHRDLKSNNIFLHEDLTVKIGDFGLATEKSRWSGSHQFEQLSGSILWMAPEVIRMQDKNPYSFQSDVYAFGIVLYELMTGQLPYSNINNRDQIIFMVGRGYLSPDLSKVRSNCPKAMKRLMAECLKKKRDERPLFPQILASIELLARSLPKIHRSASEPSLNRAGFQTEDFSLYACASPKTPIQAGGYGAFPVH
Serine/threonine-protein kinase PLK3 (Homo sapiens), sequence (Q9H4B4 whole entry, looked up): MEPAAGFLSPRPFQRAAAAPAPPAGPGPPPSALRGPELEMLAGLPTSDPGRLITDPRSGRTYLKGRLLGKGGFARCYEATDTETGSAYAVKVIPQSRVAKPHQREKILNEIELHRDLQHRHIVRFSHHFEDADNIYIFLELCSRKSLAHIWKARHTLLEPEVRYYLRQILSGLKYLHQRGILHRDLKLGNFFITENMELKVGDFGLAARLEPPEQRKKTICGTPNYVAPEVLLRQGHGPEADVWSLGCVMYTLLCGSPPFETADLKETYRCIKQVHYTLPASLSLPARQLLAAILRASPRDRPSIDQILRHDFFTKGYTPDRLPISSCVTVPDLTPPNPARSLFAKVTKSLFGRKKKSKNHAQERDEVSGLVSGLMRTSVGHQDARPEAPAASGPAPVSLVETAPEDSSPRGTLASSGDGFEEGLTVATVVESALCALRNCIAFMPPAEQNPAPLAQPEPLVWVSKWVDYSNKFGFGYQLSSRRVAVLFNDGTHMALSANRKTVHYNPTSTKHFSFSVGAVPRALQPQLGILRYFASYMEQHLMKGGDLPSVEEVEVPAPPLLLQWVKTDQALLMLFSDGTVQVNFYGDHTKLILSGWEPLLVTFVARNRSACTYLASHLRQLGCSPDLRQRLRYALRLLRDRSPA
Cyclin-dependent kinase 11B (Homo sapiens), sequence (P21127 whole entry): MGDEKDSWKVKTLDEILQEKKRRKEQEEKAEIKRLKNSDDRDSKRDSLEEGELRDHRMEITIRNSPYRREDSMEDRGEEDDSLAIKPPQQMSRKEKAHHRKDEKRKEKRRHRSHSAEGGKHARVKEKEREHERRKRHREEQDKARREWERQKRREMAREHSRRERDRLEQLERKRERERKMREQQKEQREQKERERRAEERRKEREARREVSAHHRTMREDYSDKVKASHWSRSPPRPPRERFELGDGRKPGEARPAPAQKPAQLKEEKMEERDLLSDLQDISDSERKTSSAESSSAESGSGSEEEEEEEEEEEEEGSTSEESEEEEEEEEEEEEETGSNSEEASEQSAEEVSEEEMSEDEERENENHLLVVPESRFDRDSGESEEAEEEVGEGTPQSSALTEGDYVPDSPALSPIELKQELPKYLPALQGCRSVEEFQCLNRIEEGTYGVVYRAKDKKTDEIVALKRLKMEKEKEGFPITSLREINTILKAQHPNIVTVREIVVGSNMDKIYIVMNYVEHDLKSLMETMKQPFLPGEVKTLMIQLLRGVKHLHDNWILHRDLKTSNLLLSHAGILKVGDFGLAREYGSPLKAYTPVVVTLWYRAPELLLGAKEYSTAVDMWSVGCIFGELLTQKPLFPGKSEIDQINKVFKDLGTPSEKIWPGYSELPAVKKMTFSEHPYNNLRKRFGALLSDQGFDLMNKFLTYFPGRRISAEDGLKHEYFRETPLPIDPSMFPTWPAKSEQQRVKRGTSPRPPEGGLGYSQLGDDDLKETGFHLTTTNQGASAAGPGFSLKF
Tyrosine-protein kinase Fyn (Homo sapiens), sequence (P06241 2-537 limits assumed): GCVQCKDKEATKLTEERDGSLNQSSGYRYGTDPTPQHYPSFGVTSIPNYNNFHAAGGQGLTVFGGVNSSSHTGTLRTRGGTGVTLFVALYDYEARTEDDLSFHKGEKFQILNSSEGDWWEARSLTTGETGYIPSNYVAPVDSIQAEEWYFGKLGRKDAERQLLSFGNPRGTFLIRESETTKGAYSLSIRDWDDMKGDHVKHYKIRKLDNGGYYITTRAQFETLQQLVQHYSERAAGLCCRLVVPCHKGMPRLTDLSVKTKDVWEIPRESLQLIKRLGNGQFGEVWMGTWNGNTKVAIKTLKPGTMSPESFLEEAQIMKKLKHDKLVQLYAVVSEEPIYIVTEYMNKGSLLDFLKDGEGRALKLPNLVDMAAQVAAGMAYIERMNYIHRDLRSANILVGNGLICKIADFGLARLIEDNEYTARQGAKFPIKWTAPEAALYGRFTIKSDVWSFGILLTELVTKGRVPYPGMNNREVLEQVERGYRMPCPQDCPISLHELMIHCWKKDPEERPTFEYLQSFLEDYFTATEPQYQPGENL
Cyclin-dependent kinase 17 (Homo sapiens), sequence (Q00537 whole entry, looked up): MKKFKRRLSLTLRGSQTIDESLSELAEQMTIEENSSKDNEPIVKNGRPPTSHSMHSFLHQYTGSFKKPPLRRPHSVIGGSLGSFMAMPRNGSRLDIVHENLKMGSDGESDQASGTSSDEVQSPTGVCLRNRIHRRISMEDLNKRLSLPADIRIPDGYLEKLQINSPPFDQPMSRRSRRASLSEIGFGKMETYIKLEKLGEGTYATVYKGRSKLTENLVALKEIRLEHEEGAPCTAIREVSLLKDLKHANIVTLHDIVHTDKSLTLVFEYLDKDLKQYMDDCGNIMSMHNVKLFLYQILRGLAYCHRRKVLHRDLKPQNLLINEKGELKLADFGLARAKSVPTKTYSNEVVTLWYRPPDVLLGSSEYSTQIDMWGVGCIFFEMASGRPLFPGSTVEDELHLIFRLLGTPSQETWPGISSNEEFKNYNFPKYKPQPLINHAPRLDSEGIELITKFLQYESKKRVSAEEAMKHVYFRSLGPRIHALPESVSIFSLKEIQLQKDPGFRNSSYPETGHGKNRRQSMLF
Tyrosine-protein kinase ABL1 (Homo sapiens), sequence (P00519 whole entry, the tested form may be a part): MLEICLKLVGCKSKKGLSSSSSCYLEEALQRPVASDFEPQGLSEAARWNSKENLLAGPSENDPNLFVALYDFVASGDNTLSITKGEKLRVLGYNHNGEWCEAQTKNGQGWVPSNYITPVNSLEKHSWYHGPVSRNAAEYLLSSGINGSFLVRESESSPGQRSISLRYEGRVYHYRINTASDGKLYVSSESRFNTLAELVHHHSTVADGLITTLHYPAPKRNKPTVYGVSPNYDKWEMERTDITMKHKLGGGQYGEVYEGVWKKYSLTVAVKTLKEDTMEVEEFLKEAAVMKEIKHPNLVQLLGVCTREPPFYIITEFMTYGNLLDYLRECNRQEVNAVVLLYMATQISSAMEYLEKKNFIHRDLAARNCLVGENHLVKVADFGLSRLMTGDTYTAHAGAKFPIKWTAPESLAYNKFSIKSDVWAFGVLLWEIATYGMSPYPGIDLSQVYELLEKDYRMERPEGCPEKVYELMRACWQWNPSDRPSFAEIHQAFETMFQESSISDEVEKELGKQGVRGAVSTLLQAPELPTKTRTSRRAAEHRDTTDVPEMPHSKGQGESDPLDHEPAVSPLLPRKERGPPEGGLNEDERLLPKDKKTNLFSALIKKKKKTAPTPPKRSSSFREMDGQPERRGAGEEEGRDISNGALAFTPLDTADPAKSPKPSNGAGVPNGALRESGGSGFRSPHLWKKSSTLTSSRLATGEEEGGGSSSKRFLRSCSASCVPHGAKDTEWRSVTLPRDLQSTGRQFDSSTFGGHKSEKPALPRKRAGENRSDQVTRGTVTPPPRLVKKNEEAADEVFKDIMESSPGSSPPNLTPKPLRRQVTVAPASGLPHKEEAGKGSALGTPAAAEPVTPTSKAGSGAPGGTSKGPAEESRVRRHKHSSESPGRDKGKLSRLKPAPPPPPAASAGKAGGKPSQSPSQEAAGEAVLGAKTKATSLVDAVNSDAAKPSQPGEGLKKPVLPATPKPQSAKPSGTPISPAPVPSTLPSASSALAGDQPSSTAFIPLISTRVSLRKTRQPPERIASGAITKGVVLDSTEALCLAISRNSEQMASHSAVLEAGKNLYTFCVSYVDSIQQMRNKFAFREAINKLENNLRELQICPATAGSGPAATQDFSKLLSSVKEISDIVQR
Non-receptor tyrosine-protein kinase TNK1 (Homo sapiens), sequence (Q13470 whole entry): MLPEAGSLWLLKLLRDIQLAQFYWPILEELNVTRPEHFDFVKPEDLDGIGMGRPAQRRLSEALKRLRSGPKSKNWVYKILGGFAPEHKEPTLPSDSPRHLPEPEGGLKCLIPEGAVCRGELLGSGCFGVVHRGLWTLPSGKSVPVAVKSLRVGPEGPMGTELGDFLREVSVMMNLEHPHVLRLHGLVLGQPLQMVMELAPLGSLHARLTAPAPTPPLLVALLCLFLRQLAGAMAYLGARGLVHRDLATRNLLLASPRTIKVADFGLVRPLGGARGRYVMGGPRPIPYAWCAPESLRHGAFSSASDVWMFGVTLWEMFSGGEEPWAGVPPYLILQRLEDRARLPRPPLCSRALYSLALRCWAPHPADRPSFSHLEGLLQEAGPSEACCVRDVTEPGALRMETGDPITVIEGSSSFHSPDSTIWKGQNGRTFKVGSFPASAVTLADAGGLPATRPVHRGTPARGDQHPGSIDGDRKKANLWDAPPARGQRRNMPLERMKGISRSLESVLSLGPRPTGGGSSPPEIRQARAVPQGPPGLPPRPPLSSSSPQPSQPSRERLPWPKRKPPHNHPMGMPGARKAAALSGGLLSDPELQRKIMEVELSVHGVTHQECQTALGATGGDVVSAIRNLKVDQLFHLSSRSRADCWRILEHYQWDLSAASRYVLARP

NS(=O)(=O)c1cc(NC(=O)C2(c3ccccc3Cl)CC2)ccc1Oc1cccc(Cl)c1 [BAY-207]
inactive: residual activity [1] 65% | residual activity [2] 88% | residual activity [3] 86% | residual activity [4] 83% | residual activity [5] 85% | residual activity [6] 100% | residual activity [7] 77% | residual activity [8] 100% | inhibition [9] 21.1% | inhibition [10] 2.03% | residual activity [11] 96% | residual activity [12] 82% | residual activity [13] 74% | residual activity [14] 100% | residual activity [15] 87% | residual activity [16] 97% | residual activity [17] 100% | residual activity [18] 100% | residual activity [19] 81% | residual activity [20] 86% | residual activity [21] 88% | residual activity [22] 83% | residual activity [23] 91% | residual activity [24] 70% | residual activity [25] 100% | residual activity [26] 69% | inhibition [27] 4.89% | residual activity [28] 100% | residual activity [29] 100% | residual activity [30] 100% | residual activity [31] 99% | residual activity [32] 80% | residual activity [33] 89%

NS(=O)(=O)c1cc(NC(=O)Cc2ccccc2)ccc1Oc1cccc(Cl)c1 [BAY-1797]
inactive: residual activity [1] 68% | residual activity [2] 88% | residual activity [3] 87% | residual activity [4] 71% | residual activity [5] 100% | residual activity [6] 74% | residual activity [7] 100% | residual activity [8] 100% | inhibition [9] 30.2% | inhibition [10] -8.33% | residual activity [11] 77% | residual activity [12] 64% | residual activity [13] 89% | residual activity [14] 69% | residual activity [15] 91% | residual activity [16] 96% | residual activity [17] 84% | residual activity [18] 77% | residual activity [19] 90% | residual activity [20] 62% | residual activity [21] 75% | residual activity [22] 94% | residual activity [23] 68% | residual activity [24] 69% | residual activity [25] 63% | residual activity [26] 79% | inhibition [27] -1.77% | residual activity [28] 95% | residual activity [29] 75% | residual activity [30] 77% | residual activity [31] 98% | residual activity [32] 87% | residual activity [33] 77%
